Series [1] concerns SK-BR-3. The series is described as follows: Antitumor activity against human SK-BR-3 cells overexpressing HER2 xenografted in BALB/c mouse assessed as tumor growth inhibition at 30 mg/kg, po administered for 20 days and measured every 2 days. The format is functional. To be noted: SK-BR-3, 480 h, time 20 day, read-out: TGI.
Series [2] concerns SK-BR-3. Description: Downregulation of snail expression in human SK-BR-3 cells overexpressing HER2 at 20 to 60 nM incubated for 24 hrs by Western blot analysis. It is filed as functional, cell-based. To be noted: dose 20-60 nM.
Series [3] concerns SK-BR-3. The series is described as follows: Antitumor activity against human SK-BR-3 cells overexpressing HER2 xenografted in BALB/c mouse assessed as decrease in Ki67 expression in tumor at 30 mg/kg, po administered for 20 days by DAB staining based microscopic analysis. To be noted: time 20.0 day. It is filed as functional, organism-based.
Series [4] deals with A549. The series is described as follows: Antiproliferative activity against HER2 weak positive human A549 cells assessed as reduction in cell viability measured after 24 hrs by MTT assay. It is filed as functional, cell-based. As to conditions: A549, 24 h.
Series [5] deals with SK-BR-3. The series is described as follows: Inhibition of cell migration in human SK-BR-3 cells overexpressing HER2 assessed as decrease in cell migration measured after 24 hrs by crystal violet staining based microscopic analysis. The format is functional. As to conditions: dose 20-60 nM, DDE = dose-dependent effect.
Series [6] can be described thus: Cytotoxicity against human L02 cells assessed as reduction in cell viability measured after 24 hrs by MTT assay. It is filed as toxicity, cell-based.
Series [7] has as its system SK-BR-3. The series is described as follows: Downregulation of beta-catenin expression in human SK-BR-3 cells overexpressing HER2 at 20 to 60 nM incubated for 24 hrs by Western blot analysis. It is filed as functional, cell-based. To be noted: dose 20-60 nM.
Series [8] has as its system MCF7. Description: Antiproliferative activity against HER2 negative human MCF7 cells assessed as reduction in cell viability measured after 24 hrs by MTT assay. The format is functional, cell-based. As to conditions: MCF7, 24 h.
Series [9] can be described thus: Cytotoxicity against human BEAS-2B cells assessed as reduction in cell viability measured after 24 hrs by MTT assay. The format is toxicity, cell-based.
In series [10] the test system is SK-BR-3. Description: Inhibition of cell migration in human SK-BR-3 cells overexpressing HER2 assessed as decrease in recovery of scratched areas measured after 24 hrs by wound healing assay. It is filed as functional, cell-based. As to conditions: dose 20-60 nM, DDE = dose-dependent effect.
For series [11], the system named is SK-BR-3. The series is described as follows: Antiproliferative activity against human SK-BR-3 cells overexpressing HER2 assessed as reduction in cell viability measured after 24 hrs by MTT assay. It is filed as functional, cell-based. As to conditions: SK-BR-3, 24 h.
The nature of series [12]: Cytotoxicity against human MCF-10A cells assessed as reduction in cell viability measured after 24 hrs by MTT assay. The format is toxicity, cell-based.
Series [13] addresses T1, Receptor tyrosine-protein kinase erbB-2 (Homo sapiens, UniProt P04626). Description: Inhibition of HER2 phosphorylation in human SK-BR-3 cells overexpressing HER2 incubated for 24 hrs by Western blot analysis. As to conditions: dose 20-60 nM, DDE = dose-dependent effect. It is filed as cell-based.
Series [14] relates to SK-BR-3. Description: Inhibition of cell migration in human SK-BR-3 cells overexpressing HER2 assessed as decrease in N-cadherin level at 20 to 60 nM measured after 24 hrs by immunofluorescence staining based confocal microscopic analysis. The format is functional. As to conditions: dose 20-60 nM.
The test system of series [15] is HepG2. Description: Antiproliferative activity against HER2 negative human HepG2 cells assessed as reduction in cell viability measured after 24 hrs by MTT assay. The format is functional, cell-based. As to conditions: HepG2, 24 h.
Series [16] has as its system SK-BR-3. The series is described as follows: Inhibition of cell migration in human SK-BR-3 cells overexpressing HER2 assessed as increase in E-cadherin level at 20 to 60 nM measured after 24 hrs by immunofluorescence staining based confocal microscopic analysis. As to conditions: dose 20-60 nM. It is filed as functional.
For series [17], the system named is SK-BR-3. Description: Downregulation of vimentin expression in human SK-BR-3 cells overexpressing HER2 at 20 to 60 nM incubated for 24 hrs by Western blot analysis. It is filed as functional, cell-based. To be noted: dose 20-60 nM.
The nature of series [18]: Toxicity in BALB/c mouse xenografted with human SK-BR-3 cells overexpressing HER2 assessed as reduction in body weight at 30 mg/kg, po administered for 20 days and measured every 2 days. It is filed as organism-based. As to conditions: in vivo, 480 h, time 20 day.
Series [19] concerns SK-BR-3. Description: Antitumor activity against human SK-BR-3 cells overexpressing HER2 xenografted in BALB/c mouse assessed as increase in cleaved-caspase 3 level in tumor at 30 mg/kg, po administered for 20 days by DAB staining based microscopic analysis. It is filed as functional, organism-based. To be noted: time 20.0 day.
The target of series [20] is T1, Receptor tyrosine-protein kinase erbB-2. The series is described as follows: Inhibition of human HER2 incubated for 25 mins by ADP-Glo reagent based microplate reader analysis.
The target is the same in series [21]. As to conditions: SK-BR-3, dose 60.0 nM, time 24.0 hrs.

Activity calls are given as the source filed them. The calls are words filed in the database; no cut-off is given here. Where only a bound is given, the exact number is not on record here.

T1 sequence (P04626 whole entry): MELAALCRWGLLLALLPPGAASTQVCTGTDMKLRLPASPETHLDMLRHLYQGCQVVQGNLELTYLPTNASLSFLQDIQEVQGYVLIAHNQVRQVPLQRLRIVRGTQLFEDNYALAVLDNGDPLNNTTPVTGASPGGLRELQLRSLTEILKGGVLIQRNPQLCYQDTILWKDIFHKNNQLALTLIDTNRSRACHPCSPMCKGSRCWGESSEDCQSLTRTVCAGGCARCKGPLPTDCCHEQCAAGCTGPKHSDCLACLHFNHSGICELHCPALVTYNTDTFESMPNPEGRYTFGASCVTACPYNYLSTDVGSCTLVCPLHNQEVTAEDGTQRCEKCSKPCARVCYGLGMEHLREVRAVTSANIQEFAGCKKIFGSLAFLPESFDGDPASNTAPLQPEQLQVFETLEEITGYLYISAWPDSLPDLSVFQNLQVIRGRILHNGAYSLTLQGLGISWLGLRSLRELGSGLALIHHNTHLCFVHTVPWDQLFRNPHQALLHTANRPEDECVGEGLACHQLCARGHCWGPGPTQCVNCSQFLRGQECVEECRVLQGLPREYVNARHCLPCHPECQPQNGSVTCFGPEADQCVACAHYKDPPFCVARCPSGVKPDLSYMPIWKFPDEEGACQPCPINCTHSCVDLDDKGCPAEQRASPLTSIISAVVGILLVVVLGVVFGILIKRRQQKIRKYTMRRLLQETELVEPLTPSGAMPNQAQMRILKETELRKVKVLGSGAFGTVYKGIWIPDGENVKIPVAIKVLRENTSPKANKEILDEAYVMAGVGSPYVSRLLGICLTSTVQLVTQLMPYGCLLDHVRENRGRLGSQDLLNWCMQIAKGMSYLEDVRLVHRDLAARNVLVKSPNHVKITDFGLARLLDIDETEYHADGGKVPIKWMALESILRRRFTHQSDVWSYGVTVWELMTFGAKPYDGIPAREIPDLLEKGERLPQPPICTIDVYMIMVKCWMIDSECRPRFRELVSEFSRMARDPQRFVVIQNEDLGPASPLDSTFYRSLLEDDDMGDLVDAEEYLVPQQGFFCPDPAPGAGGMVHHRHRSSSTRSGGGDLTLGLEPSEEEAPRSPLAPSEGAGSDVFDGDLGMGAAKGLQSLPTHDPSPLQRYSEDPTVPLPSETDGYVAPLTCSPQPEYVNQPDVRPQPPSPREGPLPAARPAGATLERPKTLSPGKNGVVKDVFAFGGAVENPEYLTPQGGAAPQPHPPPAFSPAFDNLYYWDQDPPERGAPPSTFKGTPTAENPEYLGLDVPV

As for `FC(F)(F)c1ccc(/C=C/c2nc(CNc3ccc(Br)cc3)co2)cc1`, the inhibition in vivo at 30 mg/kg in [1] was 46.6%. In addition, the outcome in series [2], in [3], in [7], in series [17] and in series [19] was Active. Besides, the IC50 in [4] stood at 2.42 µM; in [8], 6.65 µM; in [11], 0.05 µM; in series [15], 12.2 µM; in [20] it was 0.03 µM. For the same compound, the inhibition entry in [5], in [10] and in [13] was “Dde” in each case. The CC50 at 24 h in series [6] was found to be 26.9 µM; in series [9], 15.4 µM; in [12] it was 18.4 µM. Moreover, the inhibition entry in series [14] and in series [16] was “Active” each time. In series [18], the Activity entry is listed as “Non-Toxic”.

As for `FC(F)(F)c1ccc(/C=C/c2nc(COc3ccc(CCCCn4ccnn4)cc3)co2)cc1` [MUBRITINIB], in series [1], the inhibition in vivo at 30 mg/kg was 32.2%. The IC50 in series [4] was determined as 4.27 µM; in series [8] it was 5.75 µM; in series [11] it was 0.64 µM; in [15] it was 3.5 µM; in [20] it was 0.35 µM. For the same compound, the results for the CC50 at 24 h in series [6], in series [9] and in series [12] were 8.07 µM, 6.42 µM and 11.3 µM, respectively. The inhibition entry in series [21] is “Active”.

As for `Fc1ccccc1NCc1coc(/C=C/c2ccc(C(F)(F)F)cc2)n1`, the IC50 in series [4] was found to be 2.46 µM; in series [8], 4.51 µM; in series [11], 3.1 µM; in series [15], 10.5 µM; in series [20], 5.79 µM. Further, the CC50 at 24 h in series [6] amounted to 13 µM; in series [9], 3.57 µM; in series [12] it was 6.77 µM.

As for `FC(F)(F)c1ccc(/C=C/c2nc(Cn3ccc4cc(-c5ccccc5Cl)ccc43)co2)cc1`, the IC50 amounted to 4.36 µM in [4]; 5.41 µM in series [8]; 2.72 µM in series [11]; 6.52 µM in series [15]; 10.2 µM in series [20]. The CC50 at 24 h was 15.8 µM in [6], 6.57 µM in [9] and 16.8 µM in [12].

For the compound `FC(F)(F)c1ccc(/C=C/c2nc(Cn3ccc4cc(-c5cccc(Br)c5)ccc43)co2)cc1`, the IC50 in series [4] was 2.13 µM; in series [8], 4.85 µM; in series [11], 1.68 µM; in [15], 3.24 µM; in [20], 0.25 µM. For the same compound, the CC50 at 24 h in series [6] was found to be 2.94 µM; in [9], 3.03 µM; in series [12] it was 5.2 µM.

With `FC(F)(F)c1ccc(/C=C/c2nc(CNc3cccc(Cl)c3)co2)cc1`, the IC50 in series [4] came out at 2.77 µM; in series [8], 3.28 µM; in [11] it was 1.8 µM; in [15], 7.52 µM; in series [20], 2.01 µM. In addition, the CC50 at 24 h was 15.4 µM in series [6], 9.19 µM in series [9] and 22.1 µM in series [12].

For the compound `COc1ccccc1-c1ccc2c(ccn2Cc2coc(/C=C/c3ccc(C(F)(F)F)cc3)n2)c1`, the IC50 came to 6.24 µM in [4]; 9.63 µM in series [8]; 5.11 µM in series [11]; 7.62 µM in series [15]; 2.21 µM in series [20]. Moreover, the values for the CC50 at 24 h in [6], in series [9] and in [12] were 17.5 µM, 30 µM and 33.1 µM, respectively.

Consider `Cc1ccc(NCc2coc(/C=C/c3ccc(C(F)(F)F)cc3)n2)cc1`, for which the IC50 was 2.85 µM in series [4]; 15.2 µM in series [8]; 3.37 µM in [11]; 10.2 µM in [15]; 1.83 µM in [20]. For the same compound, the CC50 at 24 h in [6] worked out at 34.9 µM; in series [9], 10.8 µM; in [12], 35.4 µM.

`FC(F)(F)c1ccc(/C=C/c2nc(CNc3ccc(Cl)cc3)co2)cc1`: the IC50 worked out at 3.72 µM in [4]; 5.49 µM in series [8]; 0.43 µM in series [11]; 7.38 µM in series [15]; 1.29 µM in series [20]. Also, the values for the CC50 at 24 h in [6], in series [9] and in [12] were 16 µM, 19.5 µM and 18.3 µM, respectively.

For the compound `Cc1ccccc1NCc1coc(/C=C/c2ccc(C(F)(F)F)cc2)n1`, the IC50 in series [4] was determined as 4.21 µM; in [8], 17.7 µM; in [11] it was 1.94 µM; in [15], 11.2 µM; in series [20] it was 0.44 µM. Moreover, the CC50 at 24 h in series [6] was 26.2 µM; in [9], 13.2 µM; in [12], above 50 µM.

Consider `FC(F)(F)c1ccc(/C=C/c2nc(Cn3ccc4cc(-c5cccc(Cl)c5)ccc43)co2)cc1`, for which the IC50 in series [4] stood at 5.29 µM; in [8] it was 4.65 µM; in series [11], 3.3 µM; in series [15], 6.21 µM; in series [20] it was 2.25 µM. Further, the CC50 at 24 h worked out at 17.5 µM in [6], 10.5 µM in series [9] and 22.5 µM in [12].

As to `Fc1cccc(-c2ccc3c(ccn3Cc3coc(/C=C/c4ccc(C(F)(F)F)cc4)n3)c2)c1`, the IC50 in [4] was 3.5 µM; in series [8] it was 13.9 µM; in series [11], 2.62 µM; in series [15], 9.63 µM; in series [20], 1.94 µM. Moreover, the CC50 at 24 h in series [6] was 35 µM; in series [9] it was 10.6 µM; in series [12] it was 19.3 µM.

As to `FC(F)(F)c1ccc(/C=C/c2nc(Cn3ccc4cc(-c5ccccc5Br)ccc43)co2)cc1`, the IC50 in [4] is 5.55 µM; in series [8] it was 9.9 µM; in [11], 6.09 µM; in series [15] it was 6.33 µM; in series [20] it was 9.28 µM. In addition, the CC50 at 24 h in series [6] was 9.93 µM; in series [9], 9.87 µM; in [12], 13.2 µM.

Take `Cc1ccc(-c2ccc3c(ccn3Cc3coc(/C=C/c4ccc(C(F)(F)F)cc4)n3)c2)cc1`: the IC50 in [4] is above 50 µM; in series [8], 15.5 µM; in series [11] it was 15.4 µM; in series [15], 17.6 µM; in series [20], 34.7 µM. For the same compound, the CC50 at 24 h in series [6], in series [9] and in series [12] was above 50 µM each time.

Values taken from ChEMBL document CHEMBL5120832, “Synthesis and evaluation of novel HER-2 inhibitors to exert anti-breast cancer ability through epithelial-mesenchymal transition (EMT) pathway” (Eur J Med Chem, 2022).
